Reference: patent US20250199015A1, “CYCLIN-DEPENDENT KINASE 2 INHIBITORS FOR MEDICAL TREATMENT” (INCYCLIX BIO, LLC, priority 2022, published 2025)

How the values were obtained:
OVCAR-3 cells [1] = experiment: Cell cycle by EdU flow cytometry (dose, time, washout, tracing); assay type: cell-based, human; conditions: 600 nM
Description: Cells were plated at 100,000 cells/well in Corning 6 cm tissue culture treated plates. […] Cells were collected and fixed in 1% paraformaldehyde. Cells were incubated with Alexa488 azide dye as described by Thermo Scientific. Cells were then incubated with Fxcycle-violet and RNase. Cells were analyzed on a BD Celesta and data compiled using FloJo and GraphPad.
The OVCAR3 human ovarian carcinoma cell line was grown in RPMI-1640/1× Glutamax/1× Insulin/10% fetal bovine serum and was plated at 300,000 cells/well in Corning 6 cm tissue culture treated plates. […] Cells were treated for the indicated amount of time (24 hours or 48 hours), with 10 μM EdU added for the last hour of treatment. Cells were collected and fixed in 1% paraformaldehyde. Cells were incubated with Alexa 488 (A488) azide dye as described by Thermo Scientific. Cells were then incubated with FarRed dye and RNase. Cells were analyzed on a BD Celesta and data compiled using FloJo and GraphPad Prism (FIG. 13A-B).
The OVCAR3 human ovarian carcinoma cell line was grown in RPMI-1640/1× Glutamax/1× Insulin/10% fetal bovine serum and was plated at 300,000 cells/well in Corning 6 cm tissue culture treated plates. […] At 24 hours, the remaining plates were rinsed with media before un-treated media was added back. Cells were collected at the indicated times, with 10 μM EdU added for the last hour (FIG. 14A). Cells were collected and fixed in 1% paraformaldehyde. Cells were incubated with Pacific blue azide dye as described by Thermo Scientific. Cells were then incubated with FarRed dye and RNase. Cells were analyzed on a BD Celesta and data compiled using FloJo and GraphPad. […] By 18 hours, OVCAR-3 cells were in G2 or reentering G1. Cells appeared to remain somewhat synchronized over 48 hours.
The OVCAR3 human ovarian carcinoma cell line was grown in RPMI-1640/1× Glutamax/1× Insulin/10% fetal bovine serum and was plated at 300,000 cells/well in Corning 6 cm tissue culture treated plates. […] Cells were divided into two sets. The first set was treated for the indicated amount of time, with 10 μM EdU added for the last hour of treatment before being collected. The second set of cells were treated for the indicated amount of time and had EdU added for one hour before the timepoint. Then the media was aspirated, the cells washed, and re-treated with treatment media. The second set of cells was collected at 48 hours, allowing for tracing of the EdU positive cells. Cells were collected and fixed in 1% paraformaldehyde. Cells were incubated with Alexa 488 (A488) azide dye as described by Thermo Scientific. Cells were then incubated with FarRed dye and RNase. Cells were analyzed on a BD Celesta and data compiled using FloJo and GraphPad. […] Several “snap shots” of cells at various timepoints, followed by where the cells from S phase ended up at the end of 48 hours of treatment, were collected. […] It appears that the cells in S phase at after 6 hours of treatment are arresting in G1 (FIG. 15B). At 24 hours of treatment, little to no cells were in S phase so there were no cells to trace (FIG. 15C). Although the DMSO sample appears largely different at 48 hours, the distribution appears similar to the DMSO, EdU free cells at 48 hours. […] (FIG. 15D).

OVCAR-3 cells [2] = experiment: CellTiter Glo cell proliferation assay; assay type: cell-based, human; conditions: Homo sapiens, OVCAR-3, 144 h; six days
Description: Plates were returned to the incubator for six additional days. On day six post dosing, plates were removed and treated with CellTiter Glo reagent following manufacturer's specifications. Plates were incubated 45 minutes at room temperature and run on Biotek luminometer with 1 sec/well detection. Results were converted to Microsoft Excel and transferred to Graphpad Prism for analysis. […] These cell types are distinguished by either gained of cyclin E1 expression or activation (Kuramochi) or intrinsic amplification of cyclin E1 (OVCAR-3, COV318).
In a similar manner, OVCAR-3 cells were grown in RPMI-1640, 1× Glutamax, 10% FBS and 1×ITS at 37° C., 5% CO2. Cells were plated at 500 cells per well in white wall/clear bottom plates and incubated overnight. […] Plates returned to incubator for six additional days. On day six post dosing, plates were removed and treated with CellTiter Glo reagent following manufacturer's specifications. Plates were incubated 45 minutes at room temperature and run on Biotek luminometer with 1 sec/well detection. Results were converted to Microsoft Excel and transferred to GraphPad Prism for analysis.

FUOV-1 cells = experiment: CellTiter-Glo cell proliferation assay; assay type: cell-based; conditions: Homo sapiens, 144 h; 6 days; read-out: IC50 in FUOV1 cells
Description: The Kuramochi human ovarian carcinoma cell line was grown in RPMI-1640/1× Glutamax/10% fetal bovine serum and the FUOV-1 human ovarian carcinoma cell line was grown in DMEM/F12/1× Glutamax/10% fetal bovine serum and both were plated at 1,000 cells/well in Corning 96 well white wall/clear bottom tissue culture treated plates. […] Plates were removed from incubator at each specified timepoint and treated with CellTiter-Glo (Promega, Inc) following manufacturer specifications. Plates were then read on CLARIOstar luminometer with 1 sec/well integration. Results were converted to Microsoft Excel and transferred to GraphPad Prism for Analysis (FIG. 16A-B).

[3] = tested on: caspase 3/7 in H526 cells; experiment: CaspaseGlo-3/7 activation; assay type: cell-based, human; conditions: for IC50: Homo sapiens
Description: (§1) Plates were removed from incubator and treated with CaspaseGlo-3/7 (Promega, Inc) following manufacturer specifications. Plates were then read on a Biotech luminometer with 1 sec/well integration. Results were converted to Microsoft Excel and transferred to GraphPad Prism for Analysis (FIG. 22D).
as §1, with “from the” for “from”, “incubator at each specified timepoint” for “incubator”, “on” for “on a”, “27A-C).” for “22D).”

H526 cells = experiment: CellTiter Glo cell proliferation assay (single agent and chemotherapy combination); assay type: cell-based, human; conditions: Homo sapiens, NCI-H526, 144 h; six days
Description: Plates returned to incubator for six additional days. On day six post dosing, plates were removed and treated with CellTiter Glo reagent following manufacturer's specifications. Plates incubated 45 minutes at room temperature and run on a Biotek luminometer with 1 sec/well detection. Results were converted to Microsoft Excel and transferred to GraphPad Prism for analysis.
Cells were plated at 250 cells per well in white wall/clear bottom plates and incubated overnight. […] Plates returned to the incubator for six additional days. On day six post dosing, plates were removed and treated with CellTiter Glo reagent following manufacturer's specifications. Plates incubated 45 minutes at room temperature and run on a Biotek luminometer with 1 sec/well detection. Results were converted to Microsoft Excel and transferred to GraphPad Prism for analysis.
(§2) Dose curves ranged from 300 pM to 10 μM in triplicate and treatments lasted for 6 days. Plates were removed from incubator at each specified timepoint and treated with CellTiter-Glo (Promega, Inc) following manufacturer specifications. Plates were then read on CLARIOstar luminometer with 1 sec/well integration.
as §2, with “integration. Results were converted to Microsoft Excel and transferred to GraphPad Prism for Analysis.” for “integration.”

- IC50 (OVCAR-3 cells [2]): 294 nM
- IC50 ([3]; NCI-H526, 48 h, 48 hours): 1250 nM
- IC50 ([3]; NCI-H526, 72 h, 72 hours): 495 nM
- IC50 (H526 cells): 305 nM
SMILES: COCc1cc(C(=O)Nc2cc([C@H]3CC[C@@H](OC(=O)NC(C)C)C3)[nH]n2)n(C)n1 [PF-07104091, reference compound]
- G1 arrest over 48 h (OVCAR-3 cells [1]): appears to hold cells in G1 over 48 hours
- IC50 (FUOV-1 cells): 80 nM
- caspase 3/7 activation ([3]; 24 hours): no appreciable caspase 3/7 activation
